Data taken from the supplement of paper PMC10307832.

Assays:
Assay in all cases: relative viability (nuclei count vs DMSO), 5 days (fraction); higher = more cells survive
[1] = test system: A-427
In short: (§1)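 Lung cancer cell lines in 1536-well plates were dosed by pin tool the day after seeding, either with one drug alone or with a fixed anchor-drug dose plus five library-drug doses (not always all listed) in √10 steps. After 5 days, cells were fixed and their nuclei stained in one step (final 0.05% Triton X-100, 1% formaldehyde, 1 ug/ml Hoechst), then counted on 4× images. Relative viability is the nuclei count in treated wells divided by that in vehicle wells. Values are medians of duplicate plates.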

[2] = test system: NCI-H2023
In short: as §1

[3] = test system: LC-2-ad
In short: as §1

[4] = test system: ABC-1
In short: as §1

[5] = test system: NCI-H596
In short: as §1

[6] = test system: NCI-H727
In short: as §1

[7] = test system: PC-3 [JPC-3]
In short: as §1

[8] = test system: NCI-H520
In short: as §1

[9] = test system: NCI-H650
In short: as §1

[10] = test system: 201T
In short: as §1

[11] = test system: NCI-H441
In short: as §1

[12] = test system: CAL-12T
In short: as §1

[13] = test system: NCI-H1915
In short: as §1

[14] = test system: NCI-H460
In short: as §1

[15] = test system: NCI-H661
In short: as §1

[16] = test system: H3255
In short: as §1

[17] = test system: BEN
In short: as §1

[18] = test system: NCI-H2087
In short: as §1

[19] = test system: NCI-H1650
In short: as §1

[20] = test system: NCI-H1651
In short: as §1

[21] = test system: LCLC-97TM1
In short: as §1

## COc1nc(C)cnc1NS(=O)(=O)c1cccnc1-c1ccc(-c2nnco2)cc1 [Zibotentan] + CC(C)C[C@H](NC(=O)[C@H](Cc1ccccc1)NC(=O)c1cnccn1)B(O)O [Bortezomib] (partner 0.002 µM)
[1]; first compound 0.08 µM
  relative viability: 1.05
[1]; first compound 0.253 µM
  relative viability: 1.06
[1]; first compound 0.8 µM
  relative viability: 1.02
[1]; first compound 2.53 µM
  relative viability: 1.01
[2]; first compound 0.08 µM
  relative viability: 1.04
[2]; first compound 0.253 µM
  relative viability: 0.87
[2]; first compound 0.8 µM
  relative viability: 0.909
[2]; first compound 2.53 µM
  relative viability: 0.966
[3]; first compound 0.08 µM
  relative viability: 1.03
[3]; first compound 0.253 µM
  relative viability: 0.932
[3]; first compound 0.8 µM
  relative viability: 0.921
[3]; first compound 2.53 µM
  relative viability: 1.07
[4]; first compound 0.08 µM
  relative viability: 0.348
[4]; first compound 0.253 µM
  relative viability: 0.289
[4]; first compound 0.8 µM
  relative viability: 0.374
[4]; first compound 2.53 µM
  relative viability: 0.316
[5]; first compound 0.08 µM
  relative viability: 0.966
[5]; first compound 0.253 µM
  relative viability: 0.935
[5]; first compound 0.8 µM
  relative viability: 1.06
[5]; first compound 2.53 µM
  relative viability: 1.31
[6]; first compound 0.08 µM
  relative viability: 0.745
[6]; first compound 0.253 µM
  relative viability: 0.768
[6]; first compound 0.8 µM
  relative viability: 0.966
[6]; first compound 2.53 µM
  relative viability: 0.805
[7]; first compound 0.08 µM
  relative viability: 0.906
[7]; first compound 0.253 µM
  relative viability: 0.838
[7]; first compound 0.8 µM
  relative viability: 0.839
[7]; first compound 2.53 µM
  relative viability: 0.807
[8]; first compound 0.08 µM
  relative viability: 0.541
[8]; first compound 0.253 µM
  relative viability: 0.532
[8]; first compound 0.8 µM
  relative viability: 0.575
[8]; first compound 2.53 µM
  relative viability: 0.821
[9]; first compound 0.08 µM
  relative viability: 0.769
[9]; first compound 0.253 µM
  relative viability: 0.742
[9]; first compound 0.8 µM
  relative viability: 0.726
[9]; first compound 2.53 µM
  relative viability: 0.696
[10]; first compound 0.08 µM
  relative viability: 1.1
[10]; first compound 0.253 µM
  relative viability: 1.05
[10]; first compound 0.8 µM
  relative viability: 1.11
[10]; first compound 2.53 µM
  relative viability: 1.11
[11]; first compound 0.08 µM
  relative viability: 0.846
[11]; first compound 0.8 µM
  relative viability: 0.463
[11]; first compound 2.53 µM
  relative viability: 0.539
[12]; first compound 0.08 µM
  relative viability: 0.941
[12]; first compound 0.8 µM
  relative viability: 1.01
[12]; first compound 2.53 µM
  relative viability: 1.01
[13]; first compound 0.08 µM
  relative viability: 1.1
[13]; first compound 0.253 µM
  relative viability: 0.986
[13]; first compound 0.8 µM
  relative viability: 1.01
[13]; first compound 2.53 µM
  relative viability: 0.965
[14]; first compound 0.08 µM
  relative viability: 1.25
[14]; first compound 0.8 µM
  relative viability: 1.11
[14]; first compound 2.53 µM
  relative viability: 1.2
[15]; first compound 0.08 µM
  relative viability: 1.02
[15]; first compound 0.253 µM
  relative viability: 0.656
[15]; first compound 0.8 µM
  relative viability: 0.89
[15]; first compound 2.53 µM
  relative viability: 0.841
[16]; first compound 0.08 µM
  relative viability: 0.791
[16]; first compound 0.253 µM
  relative viability: 0.963
[16]; first compound 0.8 µM
  relative viability: 0.996
[16]; first compound 2.53 µM
  relative viability: 0.822
[17]; first compound 0.08 µM
  relative viability: 0.912
[17]; first compound 0.253 µM
  relative viability: 0.824
[17]; first compound 0.8 µM
  relative viability: 0.792
[17]; first compound 2.53 µM
  relative viability: 0.593
[18]; first compound 0.08 µM
  relative viability: 0.939
[18]; first compound 0.253 µM
  relative viability: 0.801
[18]; first compound 0.8 µM
  relative viability: 0.736
[18]; first compound 2.53 µM
  relative viability: 0.873
[19]; first compound 0.08 µM
  relative viability: 0.209
[19]; first compound 0.8 µM
  relative viability: 0.198
[19]; first compound 2.53 µM
  relative viability: 0.194
[20]; first compound 0.08 µM
  relative viability: 0.981
[20]; first compound 0.253 µM
  relative viability: 0.871
[20]; first compound 0.8 µM
  relative viability: 0.902
[20]; first compound 2.53 µM
  relative viability: 0.972
[21]; first compound 0.08 µM
  relative viability: 0.631
[21]; first compound 0.8 µM
  relative viability: 0.657
[21]; first compound 2.53 µM
  relative viability: 0.688
